Patent US11286259B2, “Co-crystals of ribociclib and co-crystals of ribociclib monosuccinate, preparation method therefor, compositions thereof, and uses thereof” (Hangzhou SoliPharma Co., Ltd., priority 2017, dated 2022)
Read-outs that look alike come from different tables or passages of the source.

What was measured:
[1] = high humidity, mentioned in CN105085533A, cited from earlier work
[2] = crystal form stability at high humidity; type: physicochemical
[3] = water solubility test (apparent water solubility, HPLC detection); settings: 10 mg in 10 mL deionized water, sonicated at 25° C. for 1 minute
[4] = desiccator, 4 months, room temperature, relative humidity of 10% to 90%
[5] = stability test in water, stirred at 25° C. for 24 hours, crystal form detection by XRPD; type: physicochemical; settings: for Crystal Form: 100 mg in 5 mL deionized water, stirred at 25° C. for 24 hours, XRPD
[6] = crystal stability test, samples placed at 80° C. for 24 hours, crystal form detection by XRPD; type: physicochemical; settings: after being placed for 24 hours at 80° C.
physchem = settings: deionized water, 25 °C, thermodynamic from solid
[7] = hygroscopicity, isothermal adsorption curve (weight gain versus relative humidity); type: physicochemical
[8] = listed as co-crystal form of ribociclib monosuccinate and citric acid

Structure (SMILES): CN(C)C(=O)c1cc2cnc(Nc3ccc(N4CCNCC4)cn3)nc2n1C1CCCC1.O=C(O)CCC(=O)O [listing 1 of 2 here]
- sensitivity of the crystal form to humidity [1]: easily converts to other crystal forms at high humidity
- sensitivity of the crystal form to humidity ([1]; listed as anhydrate crystal form): easily convert to other crystal forms at high humidity

Structure (SMILES): CN(C)C(=O)c1cc2cnc(Nc3ccc(N4CCNCC4)cn3)nc2n1C1CCCC1.O=C(O)c1cc(=O)[nH]c(=O)[nH]1
- crystal form at high humidity [2]: remains unchanged
- Solubility [3]: 110 µg/mL
- appearance, XRPD and melting point after storage [4]: remain unchanged

Structure (SMILES): CN(C)C(=O)c1cc2cnc(Nc3ccc(N4CCNCC4)cn3)nc2n1C1CCCC1.O=C(O)CC(O)(CC(=O)O)C(=O)O.O=C(O)CCC(=O)O
- Crystal Form [5, 8]: remains unchanged
- Crystal Form ([5]; listed as co-crystal of ribociclib monosuccinateand citric acid): Unchanged
- crystal form at high humidity [2]: remains unchanged
- appearance, XRPD and melting point after storage [4]: remain unchanged
- Crystal Form [6]: Unchanged
- Crystal Form [6, 8]: remains unchanged

Structure (SMILES): CN(C)C(=O)c1cc2cnc(Nc3ccc(N4CCNCC4)cn3)nc2n1C1CCCC1.O=C(O)CCC(=O)O [listing 2 of 2 here]
- Crystal Form [5]: cannot maintain its original crystal form
- crystal stability in water ([5]; in water, conditions not given, found by the inventors): crystallinity decreased significantly in water

Structure (SMILES): CN(C)C(=O)c1cc2cnc(Nc3ccc(N4CCNCC4)cn3)nc2n1C1CCCC1 [co-crystal of ribociclib and saccharin]
- crystal form at high humidity [2]: remains unchanged
- solubility at 1 min (physchem): ~100 µg/mL
- appearance, XRPD and melting point after storage [4]: remain unchanged
- Crystal Form [6]: Unchanged
- Crystal Form ([6]; listed as co-crystal form of ribociclib and saccharin): remains unchanged
- weight gain ([7]; relative humidity of 0-10%): 0.04%
- weight gain ([7]; relative humidity of 10 to 80%): 0.45%
